Where two headings read alike, the source gives them in different places.
System: MDA-MB-231 triple negative breast cancer cells
Conditions: paclitaxel 5 mg/kg
Text: After implanting MDA-MB-231 triple negative breast cancer cells to the nude mouse, the tumor has been grown to the 200 mm^3 volume. […] The tumor growth has been observed for 27 days.
The tumor volume and shape in the nude mouse have been observed for 27 days.

## CC(=O)O[C@H]1C(=O)[C@@]2(C)[C@H]([C@H](OC(=O)c3ccccc3)[C@]3(O)C[C@H](OC(=O)[C@H](O)[C@@H](NC(=O)c4ccccc4)c4ccccc4)C(C)=C1C3(C)C)[C@]1(OC(C)=O)CO[C@@H]1C[C@@H]2O [Paclitaxel, paclitaxel, reference compound]
Day 0
  volume of tumor, Mean ± S.E.: 277.1 ± 16.2
Day 3
  volume of tumor, Mean ± S.E.: 354.3 ± 6.3
Day 6
  volume of tumor, Mean ± S.E.: 437.9 ± 20.8
Day 12
  volume of tumor, Mean ± S.E.: 716.8 ± 72.9
Day 15
  volume of tumor, Mean ± S.E.: 906.2 ± 88.2
Day 18
  volume of tumor, Mean ± S.E.: 1161.2 ± 86.4
Day 21
  volume of tumor, Mean ± S.E.: 1421.7 ± 82.6
Day 24
  volume of tumor, Mean ± S.E.: 1760.2 ± 83.8
Day 27
  volume of tumor, Mean ± S.E.: 2136.0 ± 125.9

Reference: patent publication US10285979B2, “Breast cancer therapeutic agent containing 5′-hydroxy-5-nitro-indirubin-3′-oxime as active ingredient” (ANYGEN CO., LTD., priority 2016, dated 2019)
